For test [1], the system named is bacteria into which a plasmid encoding NDM-1 was introduced (pBCSK (+)/E. coli DH5a). Briefly: Drug susceptibility test (MIC), NDM-1-producing strain. Format: cell-based. Conditions: for MIC: Escherichia coli. On the procedure: (§1) Plates for drug susceptibility test measurement were prepared by using 96- or 384-well U-bottom plates, a Mueller-Hinton liquid medium, and antimicrobial drugs (ceftazidime (CAZ), imipenem (IPM), meropenem (MPM), doripenem (DPM), and biapenem (BPM)). A 1/2 antimicrobial drug dilution series was made up to well 11 of, for example, a 96-well U-bottom plate so that the leftmost well 1 of row A contained an antimicrobial drug at the maximum concentration, the antimicrobial drug concentration in well 2 to the right of well 1 was 1/2 of the maximum concentration, the antimicrobial drug concentration in well 3 to the right of well 2 was 1/4 of the maximum concentration, and so on. […] An antimicrobial drug dilution series was made in each of rows B and C in the same manner as in row A. Further, 10 μg/mL and 50 μg/mL of a test substance (compound A) were added to row B and row C, respectively (FIG. 1).
(§2) Bacteria into which a plasmid encoding a class B β-lactamase (metallo-β-lactamase (MBL): NDM-1, or VIM-2) was introduced (pBCSK (+)/E. coli DH5a) were used as test bacteria. The test bacteria were adjusted to 10^8 cfu/mL with a Mueller-Hinton medium. Further, the test bacteria were diluted 10-fold with a Mueller-Hinton medium (10^7 cfu/mL). 5 μl of the test bacteria was collected and inoculated into the plates for drug susceptibility test measurement. After overnight culture at 35° C., the growth of the test bacteria was visually checked. The concentration of the antimicrobial drug in a well containing the lowest concentration of the antimicrobial drug among the wells in which no growth of the test bacteria was confirmed was defined as the minimal inhibitory concentration value (FIG. 1).
(§3) The drug susceptibility test was performed in the same manner as in Test Example 1, except that compounds A to C and E to I were used as test substances.
(§4) The test was performed in the same manner as in Test Example 1, except that X2a, X2b, X2c, X2d, X3a, and X4 were used as test substances (inhibitors). The inhibitor concentration was 10 μg/mL.

In test [2] the test system is bacteria into which a plasmid encoding IMP-1 was introduced (pBCSK (+)/E. coli DH5a). Briefly: Drug susceptibility test (MIC), IMP-1-producing strain. Format: cell-based. The note with it: for MIC: Escherichia coli.
The test system of test [3] is Empty vector (no class B lactamase produced), pBCSK (+)/E. coli DH5a. Briefly: Drug susceptibility test (MIC), empty vector strain. Format: cell-based. The note with it: Escherichia coli.
Test [4] deals with bacteria into which a plasmid encoding VIM-2 was introduced (pBCSK (+)/E. coli DH5a). Briefly: Drug susceptibility test (MIC), VIM-2-producing strain. The note with it: for MIC: Escherichia coli. The format is cell-based. On the procedure:
as §1, §2, §3, §4

Test [5] concerns the target metallo-β-lactamase (IMP-1) (Serratia marcescens, UniProt P52699). Briefly: Enzyme activity measurement test (imipenem decomposition). Format: biochemical. On the procedure: A metallo-β-lactamase (IMP-1) (final concentration: 10 nM), and imipenem (final concentration: 100 μM) as a substrate were used. The imipenem decomposition activity (Dabs/min) at each point under the conditions of absorbance: 298 nm and temperature: 30° C. was measured by varying the concentrations of test substances (compounds Nos. 9-7, 9-8, and 9-9) as inhibitors (0 μM, 10 μM, and 100 μM). The activity when no test substance was added was defined as 100%, and the relative activity value when each test substance was individually added was calculated.

Setting [6] is: meropenem alone, no test substance added, Table 2.

In brackets after ≈: the same amount, converted by molar mass. Where two headings read alike, the source gives them in different places.

Sequence of metallo-β-lactamase (IMP-1) (P52699 19-246, looked up, species assumed): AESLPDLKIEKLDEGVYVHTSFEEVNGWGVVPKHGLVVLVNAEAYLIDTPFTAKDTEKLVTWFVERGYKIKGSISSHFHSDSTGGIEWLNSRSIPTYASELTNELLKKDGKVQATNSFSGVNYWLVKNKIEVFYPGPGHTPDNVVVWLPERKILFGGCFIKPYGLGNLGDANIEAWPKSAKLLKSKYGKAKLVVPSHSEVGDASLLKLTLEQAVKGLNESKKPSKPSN

In general, MIC refers to the smallest concentration in the dilution series that meets the test's criterion for growth inhibition. Take `CC(C)(O/N=C(\C(=O)N[C@@H]1C(=O)N2C(C(=O)[O-])=C(C[n+]3ccccc3)CS[C@H]12)c1csc(N)n1)C(=O)O` [CAZ, ceftazidime, reference compound]: the MIC is above 1020 µg/mL in test [1] (read-out: MIC CAZ); 256 µg/mL (≈ 468 µM) in test [2] (read-out: MIC CAZ); 0.25 µg/mL (≈ 0.457 µM) in test [3] (read-out: MIC CAZ); 16 µg/mL (≈ 29.3 µM) in test [4] (read-out: Ceftazidime MIC VIM-2-producing strain, No inhibitor); 4 µg/mL (≈ 7.32 µM) in test [4] (read-out: MIC CAZ). Further, the “MIC VIM-2 ceftazidime, None” value in test [4] (ceftazidime alone, no test substance added, Table 2) is 16 mg I^−1.

As to `Cc1oc(C)c(S(=O)(=O)N2CCC(C)(C)C2)c1C(=O)O` [9-8], the “β-lactamase activity inhibition (statement on Table 3)” value in test [5] is “inhibits β-lactamase activity”.

Regarding `CCc1ccccc1CNS(=O)(=O)c1c(C)oc(C)c1C(=O)O` [9-9], in test [5], the “β-lactamase activity inhibition (statement on Table 3)” value is given as “inhibits β-lactamase activity”.

On to `C[C@@H](O)[C@H]1C(=O)N2C(C(=O)O)=C(S[C@@H]3CN[C@H](C(=O)N(C)C)C3)[C@H](C)[C@H]12` [MPM, meropenem, reference compound], for which the MIC in test [1] (read-out: Meropenem MIC NDM-1-producing strain, No inhibitor) amounted to 4 µg/mL (≈ 10.4 µM); in test [2] (read-out: MIC MPM), 0.5 µg/mL (≈ 1.3 µM); in test [2] (read-out: Meropenem MIC IMP1-producing strain, No inhibitor), 2 µg/mL (≈ 5.22 µM); in test [3] (read-out: MIC MPM), 0.016 µg/mL (≈ 0.0417 µM); in test [4] (read-out: MIC MPM) it was 0.063 µg/mL (≈ 0.164 µM). Further, the “MIC NDM-1 meropenem, None” value in test [1] (setting [6]) amounted to 64 mg I^−1. Also, the “MIC IMP-1 meropenem, None” value in test [2] (setting [6]) was 1 mg I^−1.

The values above are taken from patent publication US11497731B2, “β-lactamase inhibitor” (NATIONAL UNIVERSITY CORPORATION TOKAI NATIONAL HIGHER …, priority 2018, dated 2022).
